Measurements: ChEMBL document CHEMBL3885881, “DrugMatrix”

Species on record: Rattus norvegicus
Experiment: DrugMatrix - Regimen: Daily Repeat
Assay type: toxicity, organism-based, Sprague-Dawley
Set-up: regimen Daily Repeat, gender Male, age 6-8 weeks
Settings: in vivo, po, route oral GAVAGE, […]; for ABSOLUTE BASOPHIL / ABSOLUTE EOSINOPHIL / ABSOLUTE LYMPHOCYTE / ABSOLUTE MONOCYTE / ABSOLUTE SEGMENTED NEUTROPHIL / BASOPHIL / EOSINOPHIL / ERYTHROCYTE COUNT / HEMATOCRIT / HEMOGLOBIN / LEUKOCYTE COUNT / LYMPHOCYTE / MEAN CORPUSCULAR HEMOGLOBIN / MEAN CORPUSCULAR HEMOGLOBIN CONCENTRATION / MEAN CORPUSCULAR VOLUME / MONOCYTE / NEUTROPHIL / NUCLEATED RED BLOOD CELLS / PLATELET COUNT: tissue Blood; for ALANINE AMINOTRANSFERASE / ALBUMIN / ALKALINE PHOSPHATASE / ASPARTATE AMINOTRANSFERASE / BLOOD UREA NITROGEN / CARBON DIOXIDE / CHLORIDE / CHOLESTEROL / CREATINE PHOSPHOKINASE / CREATININE / GLUCOSE / LACTATE DEHYDROGENASE / LIPASE / PHOSPHORUS / POTASSIUM / SODIUM / TOTAL BILIRUBIN / TOTAL PROTEIN / URIC ACID: tissue Plasma
[1] = 0 mg/kg, 72 h, dose level Control, time 3 day
[2] = 0 mg/kg, 120 h, dose level Control, time 5 day
[3] = 59 mg/kg, 72 h, dose level Low, time 3 day
[4] = 59 mg/kg, 120 h, dose level Low, time 5 day

Structure (SMILES): Oc1c(Cl)cc(Cl)cc1Sc1cc(Cl)cc(Cl)c1O [BITHIONOL]
- ABSOLUTE BASOPHIL [1]: 0 CELLS/uL
- ABSOLUTE EOSINOPHIL [1]: 33 CELLS/uL
- ABSOLUTE LYMPHOCYTE [1]: 9048.5 CELLS/uL
- ABSOLUTE MONOCYTE [1]: 80.17 CELLS/uL
- ABSOLUTE SEGMENTED NEUTROPHIL [1]: 1521.67 CELLS/uL
- BASOPHIL [1]: 0%
- EOSINOPHIL [1]: 0.17%
- ERYTHROCYTE COUNT [1]: 5.46 x10E6/uL
- HEMATOCRIT [1]: 32.87%
- HEMOGLOBIN [1]: 12.95 G/DL
- LEUKOCYTE COUNT [1]: 10.68 x10E3/uL
- LYMPHOCYTE [1]: 86.67%
- MEAN CORPUSCULAR HEMOGLOBIN [1]: 23.72 pg
- MEAN CORPUSCULAR HEMOGLOBIN CONCENTRATION [1]: 39.4 G/DL
- MEAN CORPUSCULAR VOLUME [1]: 60.18 fL
- MONOCYTE [1]: 0.83%
- NEUTROPHIL [1]: 12.33%
- NUCLEATED RED BLOOD CELLS [1]: 0 /100WBC
- PLATELET COUNT [1]: 1211.33 x10E3/uL
- ALANINE AMINOTRANSFERASE [1]: 76.67 u/L
- ALBUMIN [1]: 3.93 G/DL
- ALKALINE PHOSPHATASE [1]: 317.17 u/L
- ASPARTATE AMINOTRANSFERASE [1]: 81.17 u/L
- BLOOD UREA NITROGEN [1]: 12.33 mg/dL
- CARBON DIOXIDE [1]: 31.17 mmol/L
- CHLORIDE [1]: 98.33 MEQ/L
- CHOLESTEROL [1]: 67.17 mg/dL
- CREATINE PHOSPHOKINASE [1]: 312.33 u/L
- CREATININE [1]: 0.19 mg/dL
- GLUCOSE [1]: 165.5 mg/dL
- LACTATE DEHYDROGENASE [1]: 94.5 u/L
- LIPASE [1]: 9.83 u/L
- PHOSPHORUS [1]: 10.1 mg/dL
- POTASSIUM [1]: 5.16 MEQ/L
- SODIUM [1]: 143.02 MEQ/L
- TOTAL BILIRUBIN [1]: 0.2 mg/dL
- TOTAL PROTEIN [1]: 5.88 G/DL
- URIC ACID [1]: 0.68 mg/dL
- ABSOLUTE BASOPHIL [2]: 0 CELLS/uL
- ABSOLUTE EOSINOPHIL [2]: 14.67 CELLS/uL
- ABSOLUTE LYMPHOCYTE [2]: 9629.83 CELLS/uL
- ABSOLUTE MONOCYTE [2]: 72.5 CELLS/uL
- ABSOLUTE SEGMENTED NEUTROPHIL [2]: 1049.67 CELLS/uL
- BASOPHIL [2]: 0%
- EOSINOPHIL [2]: 0.17%
- ERYTHROCYTE COUNT [2]: 5.36 x10E6/uL
- HEMATOCRIT [2]: 33.82%
- HEMOGLOBIN [2]: 13.48 G/DL
- LEUKOCYTE COUNT [2]: 10.77 x10E3/uL
- LYMPHOCYTE [2]: 90.17%
- MEAN CORPUSCULAR HEMOGLOBIN [2]: 25.28 pg
- MEAN CORPUSCULAR HEMOGLOBIN CONCENTRATION [2]: 39.92 G/DL
- MEAN CORPUSCULAR VOLUME [2]: 63.3 fL
- MONOCYTE [2]: 0.67%
- NEUTROPHIL [2]: 9%
- NUCLEATED RED BLOOD CELLS [2]: 0.17 /100WBC
- PLATELET COUNT [2]: 1275.33 x10E3/uL
- ALANINE AMINOTRANSFERASE [2]: 93.67 u/L
- ALBUMIN [2]: 4.17 G/DL
- ALKALINE PHOSPHATASE [2]: 402.5 u/L
- ASPARTATE AMINOTRANSFERASE [2]: 122.83 u/L
- BLOOD UREA NITROGEN [2]: 14.75 mg/dL
- CARBON DIOXIDE [2]: 26.4 mmol/L
- CHLORIDE [2]: 98.5 MEQ/L
- CHOLESTEROL [2]: 57.5 mg/dL
- CREATINE PHOSPHOKINASE [2]: 305.17 u/L
- CREATININE [2]: 0.21 mg/dL
- GLUCOSE [2]: 142 mg/dL
- LACTATE DEHYDROGENASE [2]: 83.5 u/L
- LIPASE [2]: 85.83 u/L
- PHOSPHORUS [2]: 8.18 mg/dL
- POTASSIUM [2]: 5.46 MEQ/L
- SODIUM [2]: 144 MEQ/L
- TOTAL BILIRUBIN [2]: 0.25 mg/dL
- TOTAL PROTEIN [2]: 5.63 G/DL
- URIC ACID [2]: 0.8 mg/dL
- ABSOLUTE BASOPHIL [3]: 0 CELLS/uL
- ABSOLUTE EOSINOPHIL [3]: 0 CELLS/uL
- ABSOLUTE LYMPHOCYTE [3]: 6654 CELLS/uL
- ABSOLUTE MONOCYTE [3]: 41.33 CELLS/uL
- ABSOLUTE SEGMENTED NEUTROPHIL [3]: 671.33 CELLS/uL
- BASOPHIL [3]: 0%
- EOSINOPHIL [3]: 0%
- ERYTHROCYTE COUNT [3]: 5.26 x10E6/uL
- HEMATOCRIT [3]: 32.77%
- HEMOGLOBIN [3]: 12.93 G/DL
- LEUKOCYTE COUNT [3]: 7.37 x10E3/uL
- LYMPHOCYTE [3]: 90%
- MEAN CORPUSCULAR HEMOGLOBIN [3]: 24.57 pg
- MEAN CORPUSCULAR HEMOGLOBIN CONCENTRATION [3]: 39.5 G/DL
- MEAN CORPUSCULAR VOLUME [3]: 62.3 fL
- MONOCYTE [3]: 0.67%
- NEUTROPHIL [3]: 9.33%
- NUCLEATED RED BLOOD CELLS [3]: 0 /100WBC
- PLATELET COUNT [3]: 1231 x10E3/uL
- ALANINE AMINOTRANSFERASE [3]: 78.67 u/L
- ALBUMIN [3]: 4.07 G/DL
- ALKALINE PHOSPHATASE [3]: 362 u/L
- ASPARTATE AMINOTRANSFERASE [3]: 89.33 u/L
- BLOOD UREA NITROGEN [3]: 13.67 mg/dL
- CARBON DIOXIDE [3]: 31.67 mmol/L
- CHLORIDE [3]: 98.67 MEQ/L
- CHOLESTEROL [3]: 74.33 mg/dL
- CREATINE PHOSPHOKINASE [3]: 365.67 u/L
- CREATININE [3]: 0.18 mg/dL
- GLUCOSE [3]: 157.67 mg/dL
- LACTATE DEHYDROGENASE [3]: 123.67 u/L
- LIPASE [3]: 10 u/L
- PHOSPHORUS [3]: 11.23 mg/dL
- POTASSIUM [3]: 6.04 MEQ/L
- SODIUM [3]: 142.9 MEQ/L
- TOTAL BILIRUBIN [3]: 0.17 mg/dL
- TOTAL PROTEIN [3]: 5.97 G/DL
- URIC ACID [3]: 0.6 mg/dL
- ABSOLUTE BASOPHIL [4]: 0 CELLS/uL
- ABSOLUTE EOSINOPHIL [4]: 30 CELLS/uL
- ABSOLUTE LYMPHOCYTE [4]: 8041.67 CELLS/uL
- ABSOLUTE MONOCYTE [4]: 31.33 CELLS/uL
- ABSOLUTE SEGMENTED NEUTROPHIL [4]: 663.67 CELLS/uL
- BASOPHIL [4]: 0%
- EOSINOPHIL [4]: 0.33%
- ERYTHROCYTE COUNT [4]: 5.55 x10E6/uL
- HEMATOCRIT [4]: 33.6%
- HEMOGLOBIN [4]: 13.2 G/DL
- LEUKOCYTE COUNT [4]: 8.77 x10E3/uL
- LYMPHOCYTE [4]: 91.67%
- MEAN CORPUSCULAR HEMOGLOBIN [4]: 23.8 pg
- MEAN CORPUSCULAR HEMOGLOBIN CONCENTRATION [4]: 39.27 G/DL
- MEAN CORPUSCULAR VOLUME [4]: 60.53 fL
- MONOCYTE [4]: 0.33%
- NEUTROPHIL [4]: 7.67%
- NUCLEATED RED BLOOD CELLS [4]: 0 /100WBC
- PLATELET COUNT [4]: 933.33 x10E3/uL
- ALANINE AMINOTRANSFERASE [4]: 82.33 u/L
- ALBUMIN [4]: 4.23 G/DL
- ALKALINE PHOSPHATASE [4]: 343.33 u/L
- ASPARTATE AMINOTRANSFERASE [4]: 99.67 u/L
- BLOOD UREA NITROGEN [4]: 14.67 mg/dL
- CARBON DIOXIDE [4]: 27.67 mmol/L
- CHLORIDE [4]: 102.33 MEQ/L
- CHOLESTEROL [4]: 55.67 mg/dL
- CREATINE PHOSPHOKINASE [4]: 348 u/L
- CREATININE [4]: 0.19 mg/dL
- GLUCOSE [4]: 150.67 mg/dL
- LACTATE DEHYDROGENASE [4]: 104.67 u/L
- LIPASE [4]: 19 u/L
- PHOSPHORUS [4]: 9.53 mg/dL
- POTASSIUM [4]: 5.41 MEQ/L
- SODIUM [4]: 145.97 MEQ/L
- TOTAL BILIRUBIN [4]: 0.23 mg/dL
- TOTAL PROTEIN [4]: 5.97 G/DL
- URIC ACID [4]: 0.9 mg/dL
